The assay concerns OPCs. Nature of the assay: Binary global metabolomics analysis of taurine co-treatment. It counts as cell-based, rat. As to conditions: for Cysteine pool, increase with taurine / Serine pool, increase with taurine / GSH level, increase with taurine / Cysteine level, increase with taurine / Serine level, increase with taurine: 20 mM taurine; for Cysteine pool, increase with taurine / Serine pool, increase with taurine: 3 days. As to the method:
Rat primary optic nerve OPCs were isolated by panning (>99% A2B5^+) and cultured in poly-D-lysine (10 μg/ml)-coated TC dishes in OPC culture media (Neurobasal Media, Invitrogen) supplemented with B27-without vitamin A (Invitrogen), 1× non-essential amino acids, 1× Glutamax, 1× anti-anti, β-mercaptoethanol and PDGF-AA (50 ng/ml; Peprotech) at 37° C. with 5% CO2. The culture medium was replaced every 48 h and cells were collected before the confluency reached 60% to maintain a naive state. For differentiation, OPCs were plated at 1 million cells in one 10 cm petri-dish filled with differentiation media, which is identical to the culture media, but with PDGF-AA at 2 ng/ml. T3 and DMSO were used as the positive control and negative control, respectively. Five replicates of cells were collected at different times (0, 3, and 6 days) for metabolomics studies.
Global metabolomics and lipidomics. Cells incubated in differentiation medium were collected at Day 0, 3 and 6 for both the T3 and DMSO treated OPC. The cells were first rinsed with PBS twice to completely remove the culture medium and then scraped into a 1.5 mL Eppendorf vial using 500-1000 μL PBS. Subsequently, cells were collected by aspirating the supernatant after centrifugation at 1,000 rpm at 4° C. for 3 min. The global metabolites were extracted from cell pellets by a methanol:acetonitrile:water (2:2:1, v/v) solvent mixture. A volume of 600 μL of cold solvent was added to each pellet, vortexed for 30 s, and soaked in liquid nitrogen for 1 min. Samples were then allowed to thaw at room temperature and then sonicated for 10 min. This freeze-thaw process was repeated for additional twice. To further precipitate proteins, samples were incubated for 1 h at […], followed by centrifugation at 16,000 g at 4° C. for 15 min. The protein concentration of the cells was measured in the final pellet after centrifugation using BCA assay. The resulting supernatant was removed and evaporated to dryness in a vacuum concentrator (LABCONCO CentriVap Benchtop). The dry extracts were then reconstituted in the appropriate volume of acetonitrile/water (1:1, v/v), normalized by the protein concentration with the lowest concentration approximately 50 μL, sonicated for 10 min, and centrifuged for 15 min at 16,000 g and 4° C. to remove insoluble debris. The supernatants were transferred to HPLC vials with inserts and stored at −80° C. prior to LC/MS analysis. The Folch method was used to extract the lipids from OPCs treated with T3 and DMSO for 6 days. A mixture of 600 μL, chloroform/MeOH (2:1, v/v) was used in the freeze-thaw extraction method as described above, and a subsequent addition of 600 μL, of water was performed. Using this liquid-liquid extraction method, the organic phase was collected, dried and finally reconstituted in IPA/MeOH/H2O (5:1:4, v/v/v) before analysis.
Cell extracts were analyzed on a 6550 iFunnel QTOF mass spectrometer (Agilent Technologies) coupled with a 1290 UPLC system (Agilent Technologies). For global metabolomics, HPLC was carried out on a Luna Aminopropyl, 3 μm, 150 mm×1.0 mm I.D. HILIC column (Phenomenex). The mobile phase was composed of A=20 mM ammonium acetate and 40 mM ammonium hydroxide in 95% water (v/v) and B=95% acetonitrile. The remaining 5% components were either acetonitrile or water, respectively. A linear gradient from 100% B (0-5 min) to 100% A (50-55 min) was applied. A 10 min re-equilibration time was applied to the HILIC column for re-equilibration and maintenance of reproducibility. The flow rate was 50 μL/min, and the sample injection volume was 5 μL. ESI source conditions were set as follows: dry gas temperature, 200° C.; flow, 11 L/min, fragmentor, 380 V; sheath gas temperature, 300° C.; flow, 9 L/min; nozzle voltage, 500 V; capillary voltage, −500 V in ESI negative mode. The instrument was set to acquire data over the m/z range 50-1000, with the MS acquisition rate of 1 spectra/s. […]

Molecules are shown by their SMILES.

`NCCS(=O)(=O)O` [taurine, 2-aminoethanesulfonic acid]: the “Cysteine pool, increase with taurine” value (T3 1 μM) is recorded as 58.8 fold; the “Cysteine pool, increase with taurine” value (benztropine 0.5 μM) is 154.4 fold; the “Cysteine pool, increase with taurine” value (miconazole 2 μM) is 76.5 fold. Further, the “Serine pool, increase with taurine” value amounted to 17.1 fold (T3 1 μM), 10.0 fold (benztropine 0.5 μM) and 19.4 fold (miconazole 2 μM). In addition, the “GSH level, increase with taurine” value was 1.8 fold (day 3, T3 1 μM) and 6.1 fold (day 6, T3 1 μM). The “Cysteine level, increase with taurine” value reads like this: (day 6, T3 1 μM) 26.6 fold; (day 6, benztropine 0.5 μM) 44.7 fold; (day 6, miconazole 2 μM) 47.2 fold. Further, the “Serine level, increase with taurine” value is, setting by setting: (day 6, T3 1 μM) 2.1 fold; (day 6, benztropine 0.5 μM) 13.4 fold; (day 6, miconazole 2 μM) 92.5 fold. Besides, for the setting “benztropine (0.5 μM) or miconazole (2 μM) treated cultures, both time points”, the “Changes in GSH and glutamate with taurine” value is listed as “only minimally altered”.

These data come from patent publication US11998602B2, “Methods for promoting myelination and for treating demyelinating diseases” (The Scripps Research Institute, priority 2018, dated 2024).
